Measurements: a melting point compilation (Tetko et al.; mined from patent text by program, amines drawn as free bases though some values may be those of a salt)

| melting point [°C] | Structure (SMILES) |
| --- | --- |
| 110 to 112 | Cc1ccc2c3c(ccc2n1)OC[C@H](CN1CCN(c2cccc(Cl)c2)CC1)O3 |
| 132 to 135 | Cc1ccccc1CC(C(=O)O)C(=O)O |
| 39.5 to 40.5 | ClC1CCCOC1c1ccccc1 (configuration not stated) |
| 130 to 131 | COc1c(C)c(C(O)(c2cccnc2)C(C)C)c(OC)c2ccccc12 (configuration not stated) |
| 192 to 195 | O=C(O)CCCc1cc2nc(Cl)ccc2n1S(=O)(=O)c1c(F)cccc1F |
| 85 to 93 | Cc1noc(NS(=O)(=O)c2ccccc2-c2ccc(-c3cocn3)cc2)c1C |
| 96 to 99 | Cc1c(-c2ccccc2)nn(C(C)(C)C(=O)N(C)C)c1Cl |
| 126 to 128 | CCC(=O)N1CCC(=NO)c2cc(F)ccc21 |
| > 300 | O=C(O)c1cn(C2CC2)c2nc(N3Cc4cccc(CO)c4C3)c(F)cc2c1=O |
| 91 to 97 | Fc1ccc(N2CCN(Cc3cn4cc(C(F)(F)F)cc(Cl)c4n3)CC2)cc1 |
| 83 to 86 | CC(C)(C)OC(=O)N1CCN(c2nsnc2Cl)CC1 |
| 191 to 192 | NC(=O)C1(CCC(=O)O)c2ccccc2-c2ccccc21 |
| 64 to 66 | CCCC[C@]1(CC)CSc2cc(OC)c(OC)cc2[C@@H](c2ccccc2)N1 |
| 121 to 123 | CCOC(=O)C(=Cc1cccn2cc(C)nc12)N=[N+]=[N-] |
| 217 to 220 | O=C(Nc1ccc(C(=O)N2Cc3ccccc3Cc3ccccc32)cc1)c1cccnc1 |
| 87 to 91 | CCOC(=O)C(C)(C(C)=O)c1ccc([N+](=O)[O-])c(NC)c1C#N (configuration not stated) |
| 203 to 205 | CC(=O)C1=CCC2C3CCC4CC(O)CCC4(C)C3CC(O)C12C (configuration not stated) |
| 97 to 99 | CCCC(=O)Oc1ccc(C(O)CNC(C)(C)C)cc1OC(=O)CCC (configuration not stated) |
| 158 to 160 | COC(=O)C1(S(=O)(=O)N2CCC(=O)CC2)CCOCC1 |
| 67.5 to 68 | Nc1ccc(-c2ccc(N)cc2OC(F)(F)F)c(OC(F)(F)F)c1 |
| 71 to 72 | CC(C)(C)OC(=O)C1CCN(Sc2ccncc2)CC1 |
| 106 to 107 | CCCOc1ccc(CC(C)=O)cc1S(N)(=O)=O |
| 176 | ON=C(c1ccccc1)c1cccc2nc(N[C@@H]3CCc4ccccc43)ccc12 |
| 128 to 130 | CC(=O)Oc1c(C)cc2c(c1C)C(C)CN2C(C)=O (configuration not stated) |
| 133 to 136 | CCC1(C)CC(O)C2(C)CCC3c4ccc(OC)cc4CCC3C12 (configuration not stated) |
| 131 to 132 | COc1cc(CON=C(CCC(=O)O)c2ccccc2)ccc1OCc1nc(-c2ccco2)oc1C |

| melting point [°C] | Structure (SMILES) |
| --- | --- |
| 136 to 137 | O=c1nc(-c2ccccn2)sc2ccc(OCCCCCCO)cc12 |
| 64 to 65 | Cc1cc(F)cc(C)c1Cl |
| 192 to 193 | CC(C)Cn1c(=O)n(C)c(=O)c2c(N)ncnc21 |
| 144 to 146 | NC(=O)N(O)C[C@H]1C[C@@H](c2ccc(C(F)(F)F)cc2)C1 |
| 52 to 54 | COC=C(C(=O)OC)c1ccccc1CCc1ccccc1 |
| 196 to 198 | CCOCc1cc(OC)c(-c2ccc(C[C@H](NC(=O)c3c(Cl)cccc3Cl)C(=O)O)cc2)c(OC)c1 |
| 134 to 135 | Cc1ccc(S(=O)(=O)NC(Cc2ccccc2)C(=O)O)cc1 (configuration not stated) |
| 83 to 84 | Oc1ccc(C#Cc2ccccc2)cc1 |
| 170 to 172 | CCOC(=O)c1ccc2oc3ccc(OC)cc3c(=O)c2c1 |
| 281 to 284 | CC(=CC(=O)O)C(=O)NN |
| 157 to 159 | CN1CCCC1=NC(=O)Nc1cc(Cl)cc(Cl)c1 |
| 133 to 135 | CNC(=O)N1CCSC1c1ccccc1OCCN1CCN(c2ccccc2)CC1 (configuration not stated) |
| 51 | CCCCCCc1ccc(-c2ccc(OC(=O)C3(C#N)CCCC(C)C3)cc2)cc1 (configuration not stated) |
| 198 to 201 | COc1cc2c(c3c1OC(C)(C)C3)C(c1cccc(NC(=O)CS(C)=O)c1)=NC(C)(C)C2 (configuration not stated) |
| 88 to 89 | CC(C)(C)OC(=O)N1CCCN(c2ccc(F)cc2)CC1 |
| 86 to 88 | O=C(c1ccc([N+](=O)[O-])cc1)N1CCCc2ccccc21 |
| 117 to 118 | c1ccc(-c2ccc(N(c3ccccc3)c3ccccc3)cc2)cc1 |
| 197 to 199 | CCCN1N=C2C(=Cc3ccccc3)CS(=O)(=O)CC2C1c1ccccc1 (configuration not stated) |
| 142 | CN(C)S(=O)(=O)c1ccc(O)c(O)c1 |
| 193 to 196 | COc1ccc(C(=O)Nc2cccnc2)cc1N |
| 57 to 59 | CCN(CCF)CCN1C(=O)c2ccccc2C1=O |
| 66 to 67 | C=CCc1cc2c(cc1O)C(C)(C)C(O)O2 (configuration not stated) |
| 154 | Cn1cncc1C(O)(c1ccc(Cl)cc1)c1ccc2nc(C#Cc3ccccc3)cc(-c3cccc(Cl)c3)c2c1 (configuration not stated) |
| 105 to 106 | O=C(O)Cc1cn(-c2ccccc2)nc1OCc1ccccc1 |
| 134 to 136 | O=C(O)C=C1COc2ccccc2C1=O |
| 215 | Oc1cc(Cl)c2c(C34CC5CC(CC(C5)C3)C4)noc2c1 |

| melting point [°C] | Structure (SMILES) |
| --- | --- |
| 136 to 137 | COCCN1CN(C)C(=O)N(c2nc3c(s2)C(=O)CC(C)(C)C3)C1 |
| 168 to 170 | CC(NC(=S)Nc1ccc(Nc2ccccc2)nc1)C(C)(C)C (configuration not stated) |
| 191 to 192 | COc1ncc(C(=O)O)cc1OC1CCCC1 |
| 99 to 101 | CCCCC(COc1ccc(-c2cccc(CC#N)c2)cc1)N(O)C=O (configuration not stated) |
| 140 to 142 | O=Cc1ccc2sc(=O)[nH]c2c1 |
| 194 to 196 | Cc1ccc(-c2c(C(=O)O)n(CCCBr)c(=O)c3ncccc23)cc1 |
| 195 to 197 | CCOC(=O)c1cn2c(cc(OC)c3cc(OC)c(OC)cc32)n1 |
| 258 to 261 | CNc1ncc2c(-c3cccc(Cl)c3)cc(-c3cccc(CC(=O)O)c3)c(OC)c2n1 |
| 224 to 226 | NS(=O)(=O)c1ccc(-c2cnn(-c3ccc(F)c(F)c3)c(=O)c2Oc2ccc(F)cc2)cc1F |
| > 260 | COc1cc(OC)c(-c2cncnc2)cc1/C=C/C(=O)c1ccc(C(=O)O)cc1 |
| 155 to 156 | Cc1c(NC(=O)c2cc3c(s2)CCCC3)cccc1-c1cn(C)c(=O)c(Nc2ccc(C3C(=O)N(C)CCN3C)cc2)n1 (configuration not stated) |
| 216 to 219 | Fc1cc2c(Nc3ccc(OCc4ccccn4)c(Cl)c3)ncnc2cn1 |
| 186 to 189 | O=S1(=O)NCN(C2CC2)c2cc(Br)c(C(F)(F)F)cc21 |
| 238 to 240 | CC(=O)Nc1cccc(-n2ccnc2C)c1 |
| 55 to 60 | CCCCCCCCCCCCCCCc1[nH]c2ccc(C(=S)OCC)cc2c1C |
| 150 to 152 | CCC(=O)Nc1onc2c1c(=O)n(C)c(=O)n2C |
| 111 to 113 | CCOC(=O)c1cnn2c1nc(N1CCN(C)CC1)c1cnc3c(cnn3CC)c12 |
| 73 to 74 | O=C(O)CCCC(=O)NCC1(S)CCCCC1 |
| 155 to 156 | COc1ncccc1NC(=NC#N)NC(NC(=O)c1ccc(Cl)cc1)C(C)(Cl)Cl (configuration not stated) |
| 113 to 114 | CNc1ccc(S(=O)(=O)Nc2ccccc2)cc1 |
| 199 to 200 | NC1N=C(Cl)C=C(Cl)N1c1c([N+](=O)[O-])cc(C(F)(F)F)c(Cl)c1[N+](=O)[O-] (configuration not stated) |
| 93 to 96 | COc1ccc2cc(Br)ccc2n1 |
| 164 to 165 | CC(C)(C)CC(=O)Nc1ccc2oc3c(c2c1)CCCC3 |
| 143 to 145 | O=C(O)c1cc(OCc2ccccc2)cc(C(F)(F)F)c1 |
| 222 to 223 | O=[N+]([O-])c1ccc2c(c1)C(O)c1cccnc1CC2 (configuration not stated) |
| 154 to 155 | CCCCc1c(-c2ccccc2)nc(N)nc1-c1ccccc1 |

| melting point [°C] | Structure (SMILES) |
| --- | --- |
| 89 to 99 | Fc1cccc(C=Cc2nccc3ccccc23)c1 |
| 296 to 300 | O=C(O)c1cc(-c2ccc(OC(F)(F)F)cc2)c2c3c(ccc2c1)OCO3 |
| 135 to 136 | NC(CCCCNC(=O)OCc1ccccc1)C(=O)N(Cc1ccccc1)Cc1ccccc1 (configuration not stated) |
| 90 | Cc1cc(Cl)ccc1-n1cnnc1C(F)(F)F |
| 46 to 47 | CCCCCCCCCCCCCCOC(=O)CCCCc1cc(OC(C)=O)c(OC(C)=O)c([N+](=O)[O-])c1 |
| 171 to 172 | C=CCN1C(=O)COc2cc(F)c(N)cc21 |
| 135 to 138 | C=C(F)C(=O)Oc1c(Br)cc(C#N)cc1Br |
| 147 to 148 | CCOc1ccc(C2=NN(C3CCCCC3)C(=O)[C@H]3CC=CC[C@@H]23)cc1OCC (relative stereo) |
| 155 to 156 | CC(=O)Nc1ccccn1 |
| > 200 | N#Cc1c(N2CCc3ccccc3CC2)nc(CC(N)=O)[nH]c1=O |
| 110 to 111 | CCCOc1ccccc1-c1nc2ncccc2c(=O)[nH]1 |
| 95 to 97 | CCOC(=O)c1cc2cccc(OCC(O)CCl)c2o1 (configuration not stated) |
| 238 | CCCCNCCCOc1ccc(-c2ccc(C(=O)O)cc2)cc1-c1ccc2c(c1)C(C)(C)CCC2(C)C |
| 97 to 98 | Cc1oc(-c2ccccc2)nc1COc1ccc(COc2ncccc2C=O)cc1 |
| 201 to 202 | CCCn1nc2c(N)nc3ccccc3c2c1CCN(C(N)=O)c1ccc(F)cc1 |
| 109 to 111 | CCC(C)C(=O)c1cn(C)cc(-c2cccc(C(F)(F)F)c2)c1=O (configuration not stated) |
| 143 to 144 | COc1ccc(CCNC(=O)C(F)(F)F)cc1S(=O)(=O)N=CN(C)C |
| 194 to 195 | COc1ccc(Oc2c(-c3ccc(S(C)(=O)=O)cc3)cnn(CC(F)(F)F)c2=O)cc1 |
| 135 to 137 | COC(=O)Cc1ccc(-c2ccc(OCCN3CCOCC3)cc2)cn1 |
| 83 to 86 | Brc1cccc(Oc2ccccc2)n1 |
| 48 to 49 | CCOC(=O)C(Cc1ccc(C(F)(F)F)cc1)C(=O)c1ccc(F)c(F)c1 (configuration not stated) |
| 77 to 79 | O=C(CC1CCOC1=O)c1ccccc1 (configuration not stated) |
| 119 to 125 | Cc1cc(C)c(C(=NO)C(F)(F)F)c(C)c1 |

| Structure (SMILES) | melting point [°C] |
| --- | --- |
| Cc1csc(C2=CCN(CCCC(O)c3ccc(F)cc3)CC2)n1 (configuration not stated) | 89 to 90.5 |
| CCN(C)C(=N)N[N+](=O)[O-] | 124 to 125 |
| CC(=O)C(C#N)c1ccc(F)c(Cl)c1 (configuration not stated) | 133 to 134 |
| O=[N+]([O-])C(F)(CO)CO | 86 to 87 |
| CC(C)(C)c1cc(CCc2ccccc2NC(=O)N2CCC3(CC2)OCCO3)cc(C(C)(C)C)c1O | 163 to 164 |
| COC(=O)P(=O)(OC)OC | 150 |
